According to patent US12435046B2, “Alkynyl quinazoline compounds” (Black Diamond Therapeutics, Inc., priority 2019, dated 2025):

Tests used:
Format in all cases: cell-based
Conditions in all cases: Table A; BaF3 cells, 3 days
EGFR wt = target: T1, EGFR wt (Homo sapiens, UniProt P00533); assay: BaF3 cell proliferation assay (CellTiterGlo), EGFR wt
T1 construct: expressed in transfected cells; host or cells: BaF3 (murine pro-B) cells, retroviral transduction with pMXs-IRES-Blasticidin
Experimental: (§1) Retroviral Production: EGFR mutants were subcloned into pMXs-IRES-Blasticidin (RTV-016, Cell Biolabs, San Diego, CA). Retroviral expression vector retrovirus was produced by transient transfection of HEK 293T cells with the retroviral EGFR mutant expression vector pMXs-IRES-Blasticidin (RTV-016, Cell Biolabs), pCMV-Gag-Pol vector and pCMV-VSV-G-Envelope vector. Briefly, HEK 293T/17 cells were plated in 100 mm collagen coated plate (354450, Corning Life Sciences, Tewksbury, MA) (4×10^5 per plate) and incubated overnight. The next day, retroviral plasmids (3 ng of EGFR mutant, 1.0 ng of pCMV-Gag-Pol and 0.5 ng pCMV-VSV-G) were mixed in 500 n1 of Optimem (31985, Life Technologies). The mixture was incubated at room temperature for 5 min and then added to Optimem containing transfection reagent Lipofectamine (11668, Invitrogen) and incubated for 20 minutes. Mixture was then added dropwise to HEK 293T cells. The next day the medium was replaced with fresh culture medium and retrovirus was harvested @ 24 and 48 hrs.
(§2) Generation of EGFR mutant stable cell lines: BaF3 cells (1.5E5 cells) were infected with 1 ml of viral supernatant supplemented with 8 ng/ml polybrene by centrifuging for 30 min at 1000 rpm. Cells were placed in a 37° C. incubator overnight. Cells were then spun for 5 minutes to pellet the cells. Supernatant was removed and cells re-infected a fresh 1 ml of viral supernatant supplemented with 8 ng/ml polybrene by centrifuging for 30 min at 1000 rpm. Cells were placed in 37° C. incubator overnight. Cells were then maintained in RPMI containing 10% Heat Inactivated FBS, 2% L-glutamine containing 10 ng/ml IL-3. After 48 hours cells were selected for retroviral infection in 10 […] for one week. Blasticidin resistant populations were washed twice in phosphate buffered saline before plating in media lacking IL-3 to select for IL-3 independent growth.
(§3) Assay for cell proliferation: BaF3 cell lines were resuspended at 1.3E5 c/ml in RPMI containing 10% Heat Inactivated FBS, 2% L-glutamine and 1% Pen/Strep and dispensed in triplicate (17.5E4 c/well) into 96 well plates. To determine the effect of drug on cell proliferation, cells incubated for 3 days in the presence of vehicle control or test drug at varying concentrations. Inhibition of cell growth was determined by luminescent quantification of intracellular ATP content using CellTiterGlo (Promega), according to the protocol provided by the manufacturer. Comparison of cell number on day 0 versus 72 hours post drug treatment was used to plot dose-response curves. The number of viable cells was determined and normalized to vehicle-treated controls. Inhibition of proliferation, relative to vehicle-treated controls was expressed as a fraction of 1 and graphed using PRISM® software (Graphpad Software, San Diego, CA). EC50 values were determined with the same application.

EGFR V3 = target: T2, EGFR V3 (Homo sapiens, UniProt P00533, DELINS30-297G); assay: BaF3 cell proliferation assay (CellTiterGlo), EGFR V3
T2 construct: expressed in transfected cells; host or cells: BaF3 (murine pro-B) cells, retroviral transduction with pMXs-IRES-Blasticidin
T2 sequence (P00533 with tags, fused parts or gaps DELINS30-297G): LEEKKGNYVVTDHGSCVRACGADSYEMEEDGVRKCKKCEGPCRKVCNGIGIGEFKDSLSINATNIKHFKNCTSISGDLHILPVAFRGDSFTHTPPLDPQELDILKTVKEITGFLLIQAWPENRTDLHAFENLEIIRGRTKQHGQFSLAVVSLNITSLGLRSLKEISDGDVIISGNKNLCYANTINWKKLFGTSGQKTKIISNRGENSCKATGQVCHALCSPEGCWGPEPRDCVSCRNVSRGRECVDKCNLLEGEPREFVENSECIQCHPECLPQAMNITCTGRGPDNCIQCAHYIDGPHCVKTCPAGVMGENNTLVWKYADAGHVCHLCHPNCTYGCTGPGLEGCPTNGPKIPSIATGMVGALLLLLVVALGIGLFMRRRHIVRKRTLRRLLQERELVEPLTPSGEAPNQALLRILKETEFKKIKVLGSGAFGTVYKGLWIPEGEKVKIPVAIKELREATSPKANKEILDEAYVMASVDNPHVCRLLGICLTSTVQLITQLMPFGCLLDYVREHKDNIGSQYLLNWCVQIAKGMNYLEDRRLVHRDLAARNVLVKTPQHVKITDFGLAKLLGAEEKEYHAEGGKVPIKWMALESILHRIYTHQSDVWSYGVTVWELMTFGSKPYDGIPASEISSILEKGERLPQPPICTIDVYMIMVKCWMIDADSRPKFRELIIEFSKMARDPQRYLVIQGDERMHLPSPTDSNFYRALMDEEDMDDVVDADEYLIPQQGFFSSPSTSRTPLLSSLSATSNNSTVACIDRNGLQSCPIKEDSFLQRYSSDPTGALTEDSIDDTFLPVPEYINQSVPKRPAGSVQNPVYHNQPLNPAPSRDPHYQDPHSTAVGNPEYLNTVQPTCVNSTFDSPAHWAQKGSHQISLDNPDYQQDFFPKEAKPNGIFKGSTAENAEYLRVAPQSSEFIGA
Experimental: as §1, §2, §3

HER2 S310F = target: T3, HER2 S310F (Homo sapiens, UniProt P04626, S310F); assay: BaF3 cell proliferation assay (CellTiterGlo), HER2 S310F
T3 construct: expressed in transfected cells; host or cells: BaF3 (murine pro-B) cells
T3 sequence (P04626 23-1255 S310F): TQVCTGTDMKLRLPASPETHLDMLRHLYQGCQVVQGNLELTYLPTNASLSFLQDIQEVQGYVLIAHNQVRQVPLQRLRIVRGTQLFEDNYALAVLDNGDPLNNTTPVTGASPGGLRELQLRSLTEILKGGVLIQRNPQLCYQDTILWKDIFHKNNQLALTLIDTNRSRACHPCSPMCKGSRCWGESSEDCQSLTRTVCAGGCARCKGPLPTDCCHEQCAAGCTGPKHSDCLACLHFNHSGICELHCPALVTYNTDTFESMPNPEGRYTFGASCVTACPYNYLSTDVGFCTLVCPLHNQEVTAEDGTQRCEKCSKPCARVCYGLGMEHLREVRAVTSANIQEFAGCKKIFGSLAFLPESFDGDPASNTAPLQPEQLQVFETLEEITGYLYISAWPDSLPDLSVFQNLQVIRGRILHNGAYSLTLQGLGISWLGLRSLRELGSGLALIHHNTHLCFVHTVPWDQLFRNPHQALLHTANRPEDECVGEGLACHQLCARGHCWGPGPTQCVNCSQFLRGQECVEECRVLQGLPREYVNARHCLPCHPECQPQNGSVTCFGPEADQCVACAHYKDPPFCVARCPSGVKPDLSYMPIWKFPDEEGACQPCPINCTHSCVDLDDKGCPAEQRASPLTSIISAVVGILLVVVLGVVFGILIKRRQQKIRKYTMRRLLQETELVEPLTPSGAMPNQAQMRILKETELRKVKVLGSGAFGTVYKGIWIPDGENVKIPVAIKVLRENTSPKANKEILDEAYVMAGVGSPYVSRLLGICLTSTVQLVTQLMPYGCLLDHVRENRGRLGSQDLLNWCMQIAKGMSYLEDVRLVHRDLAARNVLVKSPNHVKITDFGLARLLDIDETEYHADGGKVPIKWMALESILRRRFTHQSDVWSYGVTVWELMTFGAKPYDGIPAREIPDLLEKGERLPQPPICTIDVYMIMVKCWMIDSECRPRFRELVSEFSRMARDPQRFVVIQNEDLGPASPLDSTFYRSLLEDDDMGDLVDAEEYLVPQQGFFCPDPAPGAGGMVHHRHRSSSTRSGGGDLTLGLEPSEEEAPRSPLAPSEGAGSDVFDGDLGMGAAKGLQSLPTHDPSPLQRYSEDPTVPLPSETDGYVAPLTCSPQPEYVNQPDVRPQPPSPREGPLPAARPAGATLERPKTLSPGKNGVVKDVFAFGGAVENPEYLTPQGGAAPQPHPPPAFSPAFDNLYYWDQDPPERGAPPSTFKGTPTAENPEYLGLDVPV

HER2 YVMA = target: T4, HER2 YVMA (Homo sapiens, UniProt P04626, INS775YVMA); assay: BaF3 cell proliferation assay (CellTiterGlo), HER2 YVMA
T4 construct: expressed in transfected cells; host or cells: BaF3 (murine pro-B) cells
T4 sequence (P04626 with tags, fused parts or gaps INS775YVMA): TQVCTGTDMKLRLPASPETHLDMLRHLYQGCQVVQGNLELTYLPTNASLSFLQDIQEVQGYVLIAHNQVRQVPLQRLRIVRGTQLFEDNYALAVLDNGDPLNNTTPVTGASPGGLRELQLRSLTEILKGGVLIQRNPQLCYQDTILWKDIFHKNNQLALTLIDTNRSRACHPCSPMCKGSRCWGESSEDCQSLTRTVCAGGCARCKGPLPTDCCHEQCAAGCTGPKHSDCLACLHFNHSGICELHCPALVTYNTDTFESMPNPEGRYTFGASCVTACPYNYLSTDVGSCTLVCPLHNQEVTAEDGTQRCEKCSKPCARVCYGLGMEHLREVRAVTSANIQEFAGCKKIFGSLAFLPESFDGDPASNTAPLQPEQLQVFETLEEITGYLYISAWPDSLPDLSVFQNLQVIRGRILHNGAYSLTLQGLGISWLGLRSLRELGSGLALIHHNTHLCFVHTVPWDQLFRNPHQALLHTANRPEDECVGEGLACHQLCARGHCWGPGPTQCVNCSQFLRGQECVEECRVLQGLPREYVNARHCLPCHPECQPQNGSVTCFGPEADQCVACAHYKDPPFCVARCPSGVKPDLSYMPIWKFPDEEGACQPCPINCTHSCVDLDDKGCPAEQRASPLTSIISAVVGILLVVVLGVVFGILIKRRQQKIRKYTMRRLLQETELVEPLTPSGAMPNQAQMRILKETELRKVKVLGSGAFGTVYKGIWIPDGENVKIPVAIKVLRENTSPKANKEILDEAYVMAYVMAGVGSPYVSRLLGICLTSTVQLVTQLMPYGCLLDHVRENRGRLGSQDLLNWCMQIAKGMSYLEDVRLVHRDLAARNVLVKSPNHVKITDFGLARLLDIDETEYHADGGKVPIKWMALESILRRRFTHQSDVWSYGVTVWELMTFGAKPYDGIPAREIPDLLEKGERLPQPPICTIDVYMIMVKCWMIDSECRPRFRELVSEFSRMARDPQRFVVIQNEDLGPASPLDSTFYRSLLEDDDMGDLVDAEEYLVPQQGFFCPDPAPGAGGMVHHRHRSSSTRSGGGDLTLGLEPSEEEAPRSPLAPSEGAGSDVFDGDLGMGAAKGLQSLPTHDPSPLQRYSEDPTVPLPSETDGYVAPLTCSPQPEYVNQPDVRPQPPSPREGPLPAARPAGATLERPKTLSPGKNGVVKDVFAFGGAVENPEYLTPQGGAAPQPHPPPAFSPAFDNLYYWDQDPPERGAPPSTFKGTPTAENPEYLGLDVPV

T1 sequence (P00533 25-1210): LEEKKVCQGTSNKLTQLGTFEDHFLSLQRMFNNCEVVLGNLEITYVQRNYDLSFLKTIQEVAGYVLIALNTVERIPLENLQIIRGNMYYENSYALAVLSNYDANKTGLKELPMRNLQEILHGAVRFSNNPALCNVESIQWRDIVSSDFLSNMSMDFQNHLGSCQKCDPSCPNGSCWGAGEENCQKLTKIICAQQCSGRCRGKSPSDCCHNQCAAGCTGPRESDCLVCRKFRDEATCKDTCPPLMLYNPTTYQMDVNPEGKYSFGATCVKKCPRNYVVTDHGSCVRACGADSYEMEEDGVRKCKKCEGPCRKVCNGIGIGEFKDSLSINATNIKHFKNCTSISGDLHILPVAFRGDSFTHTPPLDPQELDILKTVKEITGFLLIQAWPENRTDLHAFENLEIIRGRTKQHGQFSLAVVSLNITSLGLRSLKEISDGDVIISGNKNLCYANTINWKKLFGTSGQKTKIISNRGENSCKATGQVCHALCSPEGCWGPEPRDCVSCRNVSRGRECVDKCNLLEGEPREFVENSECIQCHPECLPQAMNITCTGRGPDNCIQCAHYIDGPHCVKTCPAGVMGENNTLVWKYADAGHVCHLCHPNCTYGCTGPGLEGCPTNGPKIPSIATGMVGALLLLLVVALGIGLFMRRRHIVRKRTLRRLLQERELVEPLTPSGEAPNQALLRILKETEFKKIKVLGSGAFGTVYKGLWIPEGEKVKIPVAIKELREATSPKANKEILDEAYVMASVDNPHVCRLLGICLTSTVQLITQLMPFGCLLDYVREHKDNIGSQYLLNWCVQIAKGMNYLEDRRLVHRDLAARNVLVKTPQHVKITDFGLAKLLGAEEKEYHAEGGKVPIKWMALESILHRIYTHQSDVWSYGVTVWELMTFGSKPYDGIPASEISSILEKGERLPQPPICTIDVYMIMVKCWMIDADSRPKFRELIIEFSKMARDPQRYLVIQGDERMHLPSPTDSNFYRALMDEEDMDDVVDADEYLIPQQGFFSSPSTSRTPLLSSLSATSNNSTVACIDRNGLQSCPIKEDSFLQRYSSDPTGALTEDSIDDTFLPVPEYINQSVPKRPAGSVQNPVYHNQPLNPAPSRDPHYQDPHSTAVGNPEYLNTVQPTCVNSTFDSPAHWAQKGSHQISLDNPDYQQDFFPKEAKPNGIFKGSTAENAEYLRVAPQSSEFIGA

| SMILES | IC50 (EGFR wt) [µM] | IC50 (EGFR V3) [µM] | IC50 (HER2 S310F) [µM] | IC50 (HER2 YVMA) [µM] |
| --- | --- | --- | --- | --- |
| C=CC(=O)Nc1cc2c(Nc3cccc(Cl)c3F)ncnc2cc1C#C[C@]1(C)CCCN(C)C1 [Compound 53, (S)—N-(4-((3-chloro-2-fluorophenyl)amino)-7-((1,3-dimethylpiperidin-3-yl)ethynyl)quinazolin-6-yl)acrylamide] | 0.1 to 0.5 | 0.1 to 0.5 | 0.1 to 0.5 | > 0.5 |
| C=CC(=O)Nc1cc2c(Nc3cccc(Cl)c3F)ncnc2cc1C#CC1(C)CCN(CCF)C1 (centres unmarked) [Compound 56, N-(4-((3-chloro-2-fluorophenyl)amino)-7-((1-(2-fluoroethyl)-3-methylpyrrolidin-3-yl)ethynyl)quinazolin-6-yl)acrylamide] | 0.1 to 0.5 | ≤ 0.05 | 0.1 to 0.5 | > 0.5 |
| C=CC(=O)Nc1cc2c(Nc3cccc(Cl)c3F)ncnc2cc1C#C[C@@H]1[C@H]2CN(C)C[C@@H]12 [Compound 78, N-(4-((3-chloro-2-fluorophenyl)amino)-7-(((1R,5S,6s)-3-methyl-3-azabicyclo[3.1.0]hexan-6-yl)ethynyl)quinazolin-6-yl)acrylamide] | ≤ 0.05 | ≤ 0.05 | ≤ 0.05 | 0.1 to 0.5 |
| C=C(F)C(=O)Nc1cc2c(Nc3cccc(Cl)c3F)ncnc2cc1C#CC1(C)CCN(C)C1 (centres unmarked) [Compound 5, N-(4-((3-chloro-2-fluorophenyl)amino)-7-((1,3-dimethylpyrrolidin-3-yl)ethynyl)quinazolin-6-yl)-2-fluoroacrylamide] | ≤ 0.05 | ≤ 0.05 | 0.1 to 0.5 | 0.1 to 0.5 |
| C=CC(=O)Nc1cc2c(Nc3cccc(Cl)c3F)ncnc2cc1C#CC12CC1CN(C)C2 (centres unmarked) [Compound 65, N-(4-((3-chloro-2-fluorophenyl)amino)-7-((3-methyl-3-azabicyclo[3.1.0]hexan-1-yl)ethynyl)quinazolin-6-yl)acrylamide] | 0.1 to 0.5 | ≤ 0.05 | 0.05 to 0.1 | 0.1 to 0.5 |
| COC/C=C/C(=O)Nc1cc2c(Nc3cccc(Cl)c3F)ncnc2cc1C#C[C@@]12C[C@@H]1CN(C)C2 [Compound 21, (E)-N-(4-((3-chloro-2-fluorophenyl)amino)-7-(((1R,5S)-3-methyl-3-azabicyclo[3.1.0]hexan-1-yl)ethynyl)quinazolin-6-yl)-4-methoxybut-2-enamide] | ≤ 0.05 | 0.1 to 0.5 | 0.1 to 0.5 | > 0.5 |
| C=CC(=O)Nc1cc2c(Nc3cccc(Cl)c3F)ncnc2cc1C#C[C@]1(C)CCN(C2COC2)C1 [Compound 58, (S)—N-(4-((3-chloro-2-fluorophenyl)amino)-7-((3-methyl-1-(oxetan-3-yl)pyrrolidin-3-yl)ethynyl)quinazolin-6-yl)acrylamide] | 0.1 to 0.5 | ≤ 0.05 | 0.05 to 0.1 | > 0.5 |
| C=CC(=O)Nc1cc2c(Nc3cccc(Cl)c3F)ncnc2cc1C#CC1(C)CN(C)C1 [Compound 11, N-(4-((3-chloro-2-fluorophenyl)amino)-7-((1,3-dimethylazetidin-3-yl)ethynyl)quinazolin-6-yl) acrylamide] | 0.1 to 0.5 | ≤ 0.05 | 0.1 to 0.5 | 0.1 to 0.5 |
| CN1C[C@H]2C[C@@]2(C#Cc2cc3ncnc(Nc4cccc(Cl)c4F)c3cc2NC(=O)/C=C/CN2CCCC(C(=O)O)C2)C1 (stereo partly drawn) [Compound 19, 1-[(E)-4-[[4-(3-chloro-2-fluoro-anilino)-7-[2-[(1R,5S)-3-methyl-3-azabicyclo[3.1.0]hexan-1-yl]ethynyl]quinazolin-6-yl]amino]-4-oxo-but-2-enyl]piperidine-3-carboxylic acid] | 0.1 to 0.5 | > 0.5 | 0.05 to 0.1 | > 0.5 |
| C=CC(=O)Nc1cc2c(Nc3cccc(Cl)c3F)ncnc2cc1C#CC1(C)CN(C)C2(COC2)C1 (centres unmarked) [Compound 47, N-(4-((3-chloro-2-fluorophenyl)amino)-7-((5,7-dimethyl-2-oxa-5-azaspiro[3.4]octan-7-yl)ethynyl)quinazolin-6-yl)acrylamide] | > 0.5 | 0.1 to 0.5 | > 0.5 | > 0.5 |
| C=CC(=O)Nc1cc2c(Nc3cccc(Cl)c3F)ncnc2cc1C#CC12CC1CN(C1COC1)C2 (centres unmarked) [Compound 64, N-(4-((3-chloro-2-fluorophenyl)amino)-7-((3-(oxetan-3-yl)-3-azabicyclo[3.1.0]hexan-1-yl)ethynyl)quinazolin-6-yl)acrylamide] | 0.1 to 0.5 | ≤ 0.05 | 0.1 to 0.5 | 0.1 to 0.5 |
| C=CC(=O)Nc1cc2c(Nc3cccc(Cl)c3F)ncnc2cc1C#CC1(C(F)(F)F)CCN(C)C1 (centres unmarked) [Compound 62, N-(4-((3-chloro-2-fluorophenyl)amino)-7-((1-methyl-3-(trifluoromethyl)pyrrolidin-3-yl)ethynyl)quinazolin-6-yl)acrylamide] | > 0.5 | 0.1 to 0.5 | 0.1 to 0.5 | > 0.5 |
| C=CC(=O)Nc1cc2c(Nc3ccc(OCc4ccccn4)c(Cl)c3)ncnc2cc1C#C[C@@]1(C)CCN(C)C1 [Compound 14, (R)—N-(4-((3-chloro-4-(pyridin-2-ylmethoxy)phenyl)amino)-7-((1,3-dimethylpyrrolidin-3-yl)ethynyl)quinazolin-6-yl)acrylamide] | > 0.5 | ≤ 0.05 | ≤ 0.05 | 0.05 to 0.1 |
| C=CC(=O)Nc1cc2c(Nc3cccc(Cl)c3F)ncnc2cc1C#C[C@]12C[C@H]1CN(C1COC1)C2 [Compound 48, N-(4-((3-chloro-2-fluorophenyl)amino)-7-(((1S,5R)-3-(oxetan-3-yl)-3-azabicyclo[3.1.0]hexan-1-yl)ethynyl)quinazolin-6-yl)acrylamide] | 0.1 to 0.5 | 0.1 to 0.5 | 0.1 to 0.5 | > 0.5 |
| C=CC(=O)Nc1cc2c(Nc3cccc(Cl)c3F)ncnc2cc1C#C[C@]1(F)CCN(C)C1 [Compound 46, N-{4-[(3-chloro-2-fluorophenyl)amino]-7-{2-[(3R)-3-fluoro-1-methyl-pyrrolidin-3-yl]ethynyl}quinazolin-6-yl}prop-2-enamide] | 0.1 to 0.5 | ≤ 0.05 | 0.1 to 0.5 | > 0.5 |
| C=CC(=O)Nc1cc2c(Nc3ccc(Cl)c(Cl)c3F)ncnc2cc1C#CC1(C)CCN(C)C1 (centres unmarked) [Compound 7, N-(4-((3,4-dichloro-2-fluorophenyl)amino)-7-((1,3-dimethylpyrrolidin-3-yl)ethynyl)quinazolin-6-yl)acrylamide] | ≤ 0.05 | ≤ 0.05 | 0.05 to 0.1 | 0.1 to 0.5 |
| C=CC(=O)Nc1cc2c(Nc3ccc(OCc4ccccn4)c(Cl)c3)ncnc2cc1C#CC1(C)CCCN(C)C1 (centres unmarked) [Compound 67, N-(4-((3-chloro-4-(pyridin-2-ylmethoxy)phenyl)amino)-7-((1,3-dimethylpiperidin-3-yl)ethynyl)quinazolin-6-yl)acrylamide] | > 0.5 | 0.05 to 0.1 | ≤ 0.05 | 0.1 to 0.5 |
| CN1C[C@H]2C[C@@]2(C#Cc2cc3ncnc(Nc4cccc(Cl)c4F)c3cc2NC(=O)/C=C/CN2C3COCC2C3)C1 [Compound 20, (E)-4-(3-oxa-6-azabicyclo[3.1.1]heptan-6-yl)-N-(4-((3-chloro-2-fluorophenyl)amino)-7-(((1R,5S)-3-methyl-3-azabicyclo[3.1.0]hexan-1-yl)ethynyl)quinazolin-6-yl)but-2-enamide] | 0.1 to 0.5 | ≤ 0.05 | ≤ 0.05 |  |
| CN1CC[C@](C)(C#Cc2cc3ncnc(Nc4cccc(Cl)c4F)c3cc2NC(=O)/C=C/CN2CCOCC2)C1 [Compound No. 81, (R,E)-N-(4-((3-chloro-2-fluorophenyl)amino)-7-((1,3-dimethylpyrrolidin-3-yl)ethynyl)quinazolin-6-yl)-4-morpholinobut-2-enamide] |  | 0.1 to 0.5 | > 0.5 | > 0.5 |
